Data as given in patent publication US20230391842A1, “RETRO-INVERSO PEPTIDES” (Herantis Pharma OYJ, priority 2019, published 2023).
pKd: −log10 of the molar value. Positions of bridges follow the written chain, without caps; N, C: chain ends. Non-standard residues stand in square brackets, D forms with d. Residues, ends and D or L forms follow the SMILES beside them.

Columns and labels:
[1] = test system: dopaminergic TH-positive neurons injured with MPP+; test: Neuroprotective effect on dopaminergic TH-positive neurons injured with MPP+ (primary mesencephalic culture); format: cell-based, rat; details: MPP+ 4 μM, 48 h; stated for 'most cases'
Experimental: Neuroprotective effects of compounds 1-20 (SEQ ID NO:s 1-20, parent and retro-inverso) were tested in an in vitro model in which primary cultures of rat embryonic mesencephalic neurons were stressed with MPP+, the active metabolite of neurotoxin 1-methyl-4-phenyl-1,2,3,6-tetrahydropyridine (MPTP). MPP+ kills dopaminergic (TH-positive) neurons via a variety of toxic mechanisms, including mitochondrial dysfunction, generation of peroxynitrite, oxidative stress, ER stress and induction of apoptosis.
Rat dopaminergic neurons were cultured as described by Visanji et al., 2008. Briefly, the midbrains obtained from 15-day-old rat embryos (Janvier, France) were dissected, and the ventral portion of the mesencephalic flexure, a region of the developing brain rich in dopaminergic neurons, was used for the cell preparations. The midbrain cells were dissociated by trypsinization for 20 min at 37° C. […] The reaction was stopped by adding Dulbecco's modified Eagle's medium (DMEM) containing DNAase I grade II (0.5 mg/mL) and 10% of fetal calf serum (FCS). Cells were then mechanically dissociated by 3 passages through a 10 ml pipette. Cells were then centrifuged at 180×g for 10 min at +4° C. on a layer of BSA (3.5%) in L15 medium. The cell pellets was re-suspended in a defined culture serum-free medium consisting of Neurobasal (Invitrogen) supplemented with B27 (2%), L-glutamine (2 mM) and 2% of PS solution and 10 ng/ml of Brain-derived neurotrophic factor (BDNF) and 1 ng/mL of Glial-Derived Neurotrophic Factor (GDNF). […] The cells were seeded at a density of 40 000 cells/well in 96 well-plates (pre-coated with poly-L-lysine) and maintained in a humidified incubator at 37° C. in 5% CO2/95% air atmosphere. Half of the medium was changed every 2 days with fresh medium. On 96-wells plates, only 60 wells are used. To avoid any edge effect, the first and last lines and columns were not be used for culture and were filled with sterile water.
On day 6 of culture, CDNF or the compounds 1-20 (SEQ ID NO:s 1-20, parent and retro-inverso), were dissolved in culture medium and then pre-incubated with mesencephalic neurons for 4 hours before the MPP+ application. Four hours after the preincubation of the compounds, MPP+ was added to a final concentration of 4 μM, diluted in control medium still in presence of compounds for 48 h.
48 hours after intoxication, the cells were fixed by a solution of 4% paraformaldehyde in PBS, pH 7.3 for 20 min at room temperature. The cells were washed twice in PBS, and then permeabilized and non-specific sites were blocked with a solution of PBS containing 0.1% of saponin and 1% FCS for 15 min at room temperature. Next, the cells were incubated with (a) a monoclonal antibody anti-Tyrosine Hydroxylase (TH) produced in mouse at dilution of 1:1 0000 and with (b) a polyclonal antibody anti-alpha-synuclein (aSyn) antibody produced in rabbit at dilution of 1:400 in PBS containing 1% FCS, 0.1% saponin, for 2 h at room temperature.
48 hours after intoxication, the cell culture supernatant was removed, and the cells fixed by a solution of 4% paraformaldehyde in PBS, pH 7.3 for 20 min at room temperature. The cells were washed twice in PBS, and then permeabilized and non-specific sites were blocked with a solution of PBS containing 0.1% of saponin and 1% FCS for 15 min at room temperature. Then, the cells were incubated with a) a monoclonal Anti-Tyrosine Hydroxylase (TH) antibody produced in mouse at dilution of 1:10000 in PBS containing 1% FCS, 0.1% saponin, for 2 hours at room temperature, and b) a polyclonal anti-postsynaptic density protein-95 (PSD-95) antibody produced in rabbit at dilution of 1:200 in PBS containing 1% FCS, 0.1% saponin, for 2 h at room temperature. This antibody stains specifically synapses.
For each condition, pictures representing the whole well area were automatically acquired using ImageXpress (Molecular device) at 10× (20 pictures, for TH and a-syn) or at 40× magnification (60 pictures, for TH and PSD-95). […]

[2] = test system: unfolded protein response (UPR) pathway signaling in TH-positive neurons injured with MPP+; test: Dependence of neuroprotection in MPP+-injured mesencephalic neurons on UPR signaling (PERK / IRE1alpha inhibitors); format: cell-based, rat
Experimental: CDNF and MANF protect cells from ER stress-induced cell dysfunction or cell death, such as apoptosis by modulating cellular responses to ER stress. […] Binding of compounds to GRP78-NBD was assessed in a cell-free binding assay using purified recombinant GRP78-NBD and synthesized peptides. As GRP78 also serves as a critical ligand of the three receptors of the unfolded protein response (UPR) pathway, IRE1[…], PERK and ATF6, the dependency of the compounds' neuroprotective effects on UPR signaling was also tested.
The neuronal cell culture, MPP+ intoxication, immunostaining and analysis of neuroprotective effects of compounds were performed as in Example 1. PERK inhibitor GSK2606414 (2 µM, Sigma) or IRE1alpha inhibitor KIRA6 (2 µM, Sigma) were added to is the culture 1 h before addition of the test compounds.

[3] = In vitro metabolic stability in rat plasma; format: in vitro ADME; details: 1 μM, 37° C., up to 120 min
Experimental: Metabolic stability of the retro-inverso and native control peptides was studied using rat plasma over the time period of 120 min, with initial test concentration of 1 μM. Samples were analysed using LC/QE-orbitrap-MS. Calculated half-life is based on compound disappearance in rat plasma.
The incubation was terminated by acetonitrile. […] Stock solutions was prepared using 50% DMSO, and the compounds were spiked 1/100 to incubation to have final DMSO content of 0.5%. […] For analysis of compounds 13-14 and 19-20 stock solutions were prepared with PBS, and samples were analyzed by UHPLC-ToF mass spectrometry. Enalapril 1 μM was used as a disappearance rate control.

[4] = In vivo pharmacokinetics after intravenous administration to rats; details: rat, 5 mg/kg intravenous bolus injection, male Sprague-Dawley rats, plasma
Experimental: Test compounds were intravenously (i.v.) administered to male Spraque-Dawley rats (about six weeks old, n=3 per compound) at 5 mg/kg. Blood samples were collected from jugular vein through implanted in-dwelling catheters (250 μl blood) into labelled polypropylene tubes containing anticoagulant (heparin) at 2 min, 5 min, 15 min, 30 min, 1 h, 2 h and 4 h after compound administration and held on wet ice for a maximum of 30 minutes. The blood samples were centrifuged for plasma separation (4° C., 21100 G, 5 min). Tolbutamide 500 ng/ml with 10% TFA in acetonitrile or in MeCN was used as an internal standard solution. The standard samples were prepared into rat plasma by spiking the matrix into concentrations 2-10 000 ng/ml of the analyte, respectively, and otherwise treated as the samples. To 50 μl aliquots of sample plasma was added 200 μl of internal standard. Samples were mixed (150 rpm, 15 min) and centrifugated (3000 rpm, 15 min). The analytical method was optimized for reaction monitoring chromatographic (peak shape & retention) shifts and mass spectrometric properties (ionization efficiency, MS/MS detection). Supernatants were is analyzed by UHPLC-TOF mass spectrometry using electrospray ionization. […]

[5] = biological target: nucleotide-binding domain of GRP78 (GRP78-NBD); test: Binding to GRP78-NBD Kd (μM)
Text: Table printed on a drawing sheet, FIG. 5B
Head of the field: Binding to GRP78-NBD Kd (μM)
GRP78-NBD is shown in a to translucent surface model along with its cartoon trace. The Cys-Cys bond in compound 14 (SEQ ID NO: 14) is shown in sticks.
The binding affinities are obtained by microscale thermophoresis-based cell free assay.
GSK2606414 was used to inhibit PERK signaling and KIRA6 to inhibit IRE1alpha signaling. * p<0.05, ** p<0.01, *** p<0.001, **** p<0.0001 one-way ANOVA test with post-hoc Fisher's LSD test for pairwise comparison vs MPP+ negative control. #p<0.05, ##p<0.01, ###p<0.001, ####p<0.0001 one-way ANOVA test with post-hoc Fisher's LSD test for pairwise comparison between effect of compound alone and its combination with UPR signal inhibitor.
Where the first naming reader finds the target: head: Binding to GRP78-NBD Kd (μM)

[6] = test system: rat hepatocytes; test: In vitro metabolic stability in rat hepatocytes; details: 1 μM, 37° C., 0-60 min
[7] = In vitro metabolic stability in human plasma; format: in vitro ADME; details: 1 μM, 37° C., up to 120 min
Experimental: Metabolic stability was studied using human plasma over the time period of 120 min, with initial test concentration of 1 μM. Samples were analysed using LC/QE-orbitrap-MS. Calculated half-life is based on compound disappearance in human plasma.
The incubation was terminated by acetonitrile. […] Propanthelin bromide 1 uM was used as a disappearance rate control. […] The in vitro half-life (t1/2) of is study compound is defined as: t1/2=ln2/k.

[8] = test system: human hepatocytes; test: In vitro metabolic stability in human hepatocytes; details: 1 μM, 37° C., 0-60 min

Row | SMILES | potency of retro-inverso peptides relative to their parent compounds and to full-length CDNF protein [1] | neuroprotective effect in the presence of PERK inhibitor GSK2606414 ([2]; GSK2606414 added 1 h before test compound) | neuroprotective effect in the presence of IRE1alpha inhibitor KIRA6 ([2]; KIRA6 added 1 h before test compound) | stability in rat plasma as compared to parent compound [3] | AUC(0-inf) [4] [ng·h/mL] | MRT [4] [min] | Vd [4] [L/kg] | half-life [4] [min] | clearance ([4]; read-out: CI) [mL/min/kg] | pKd [5] | stability in rat hepatocytes as compared to parent compound [6] | stability in human plasma as compared to parent compound [7] | stability in human hepatocytes as compared to parent compound [8]
1 | C[C@H](O)[C@@H](NC(=O)[C@H]1CSSC[C@@H](NC(=O)[C@@H](C)NC(=O)[C@H](N)CCC(=O)O)C(=O)NCC(=O)N[C@H](CCCCN)C(=O)N1)C(=O)N[C@H](CCC(=O)O)C(=O)O [Compound 20, EACGKCTE] | comparable | abolished | abolished | significantly improved stability | 18400 | 23.9 | 0.11 | 20.5 | 4.57 | 5.47 | significantly improved stability | – | –
2 | C[C@H](O)[C@@H](NC(=O)[C@H]1CSSC[C@@H](NC(=O)[C@@H](C)NC(=O)[C@@H](CCC(=O)O)NC(=O)[C@@H](CCCCN)NC(=O)[C@H](N)CO)C(=O)NCC(=O)N[C@H](CCCCN)C(=O)N1)C(=O)N[C@H](CCC(=O)O)C(=O)NCC(=O)O [Compound 8, SKEACGKCTEG] (H-[dS][dK][dE][dA][dC]G[dK][dC][dT][dE]G-OH; disulfide 5-8; N-terminus and C-terminus assumed) | – | – | – | significantly improved stability | – | – | – | – | – | – | significantly improved stability | improved stability | significantly improved stability
